Drawing on PMC10824666 (Nature Cancer, 2023), this text covers remaining activity for 3 molecules.

The structures appear in SMILES notation. Where two headings read alike, the source gives them in different places.

What all share (test): biochemical
Holding throughout (parameters): Eurofins DiscoverX kinase panel, competitive binding assay at 1 uM, percent of DMSO control
What all share (conditions): competitive binding, percent of DMSO control

In one assay the target is T1, TIE2 (Homo sapiens, UniProt Q02763).
T1 construct: gene TEK
T1 sequence (Q02763 whole entry): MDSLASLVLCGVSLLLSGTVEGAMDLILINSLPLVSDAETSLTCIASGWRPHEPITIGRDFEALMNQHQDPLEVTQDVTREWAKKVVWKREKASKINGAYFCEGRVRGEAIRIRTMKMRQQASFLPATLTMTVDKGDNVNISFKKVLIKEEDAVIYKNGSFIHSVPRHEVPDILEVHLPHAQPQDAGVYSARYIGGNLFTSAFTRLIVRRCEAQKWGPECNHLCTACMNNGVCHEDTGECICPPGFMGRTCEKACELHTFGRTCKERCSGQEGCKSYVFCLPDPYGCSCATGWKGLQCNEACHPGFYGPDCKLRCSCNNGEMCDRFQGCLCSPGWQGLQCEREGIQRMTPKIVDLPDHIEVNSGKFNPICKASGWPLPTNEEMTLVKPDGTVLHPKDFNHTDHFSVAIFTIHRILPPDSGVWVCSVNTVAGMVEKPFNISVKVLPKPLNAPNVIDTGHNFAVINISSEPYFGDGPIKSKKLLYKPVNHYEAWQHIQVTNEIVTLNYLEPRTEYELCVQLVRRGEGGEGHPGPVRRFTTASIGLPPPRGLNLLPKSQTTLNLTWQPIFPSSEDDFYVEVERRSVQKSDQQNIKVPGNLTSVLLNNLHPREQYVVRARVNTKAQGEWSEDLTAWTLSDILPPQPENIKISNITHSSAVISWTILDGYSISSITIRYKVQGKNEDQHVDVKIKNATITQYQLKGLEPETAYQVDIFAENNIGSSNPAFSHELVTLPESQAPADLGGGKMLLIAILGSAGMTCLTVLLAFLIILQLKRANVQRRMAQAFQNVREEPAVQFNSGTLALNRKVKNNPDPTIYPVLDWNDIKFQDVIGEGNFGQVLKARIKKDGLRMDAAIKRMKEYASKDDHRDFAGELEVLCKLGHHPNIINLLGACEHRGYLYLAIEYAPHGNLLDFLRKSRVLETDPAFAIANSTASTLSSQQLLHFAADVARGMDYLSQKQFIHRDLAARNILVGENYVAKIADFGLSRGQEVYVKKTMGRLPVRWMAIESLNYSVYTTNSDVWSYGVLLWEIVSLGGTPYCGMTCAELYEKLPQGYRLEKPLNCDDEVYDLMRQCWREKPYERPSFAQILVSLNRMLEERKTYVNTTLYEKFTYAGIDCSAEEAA
Summed up: (§1)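 Competitive binding assay across a 96-kinase panel with KIF18A compounds at 1 µM; values given as percentage of control (POC), single experiment.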

The next assay concerns the target T2, MST2 (Homo sapiens, UniProt Q13188).
T2 construct: gene STK3
T2 sequence (Q13188 1-491): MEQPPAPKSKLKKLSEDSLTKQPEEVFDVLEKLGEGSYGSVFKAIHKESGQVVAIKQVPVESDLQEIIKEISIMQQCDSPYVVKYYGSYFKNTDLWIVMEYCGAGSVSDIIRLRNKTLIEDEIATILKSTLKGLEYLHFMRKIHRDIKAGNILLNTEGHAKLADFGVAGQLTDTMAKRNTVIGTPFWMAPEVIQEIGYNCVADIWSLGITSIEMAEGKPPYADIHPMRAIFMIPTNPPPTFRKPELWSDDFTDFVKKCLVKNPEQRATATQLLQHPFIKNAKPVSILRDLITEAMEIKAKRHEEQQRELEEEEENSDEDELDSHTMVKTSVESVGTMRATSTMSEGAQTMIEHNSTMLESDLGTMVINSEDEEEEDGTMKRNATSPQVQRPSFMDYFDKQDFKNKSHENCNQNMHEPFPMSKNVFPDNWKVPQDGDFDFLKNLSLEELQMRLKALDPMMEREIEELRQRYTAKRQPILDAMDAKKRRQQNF
Summed up: as §1

The next assay has as its target T3, TBK1 (Homo sapiens, UniProt Q9UHD2).
T3 sequence (Q9UHD2 1-729): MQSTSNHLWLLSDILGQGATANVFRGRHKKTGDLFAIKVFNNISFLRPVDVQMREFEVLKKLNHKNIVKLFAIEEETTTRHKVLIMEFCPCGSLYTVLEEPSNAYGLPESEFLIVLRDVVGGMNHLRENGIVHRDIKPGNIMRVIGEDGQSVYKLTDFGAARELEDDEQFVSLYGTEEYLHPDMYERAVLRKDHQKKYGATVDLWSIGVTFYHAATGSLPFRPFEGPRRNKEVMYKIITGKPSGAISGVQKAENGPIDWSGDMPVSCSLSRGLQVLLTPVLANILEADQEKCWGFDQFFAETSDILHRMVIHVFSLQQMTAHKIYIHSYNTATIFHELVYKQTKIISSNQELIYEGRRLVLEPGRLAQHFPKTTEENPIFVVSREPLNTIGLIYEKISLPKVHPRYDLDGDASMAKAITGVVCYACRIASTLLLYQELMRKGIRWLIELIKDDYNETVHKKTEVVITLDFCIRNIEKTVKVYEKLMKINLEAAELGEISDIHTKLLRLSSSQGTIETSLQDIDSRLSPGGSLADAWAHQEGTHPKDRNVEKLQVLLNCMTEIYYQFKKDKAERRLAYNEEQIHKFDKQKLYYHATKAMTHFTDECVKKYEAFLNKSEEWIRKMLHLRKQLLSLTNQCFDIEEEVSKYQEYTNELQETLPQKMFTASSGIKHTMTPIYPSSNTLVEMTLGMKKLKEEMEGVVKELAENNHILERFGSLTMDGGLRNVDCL
An outline of the steps:
as §1

For another assay, the target named is PDGFRB (Homo sapiens, UniProt P09619). Summed up:
as §1

The next assay deals with T4, MNK1b (Homo sapiens, UniProt Q9BUB5).
T4 construct: gene MKNK1; isoform b
T4 sequence (Q9BUB5 whole entry, canonical isoform): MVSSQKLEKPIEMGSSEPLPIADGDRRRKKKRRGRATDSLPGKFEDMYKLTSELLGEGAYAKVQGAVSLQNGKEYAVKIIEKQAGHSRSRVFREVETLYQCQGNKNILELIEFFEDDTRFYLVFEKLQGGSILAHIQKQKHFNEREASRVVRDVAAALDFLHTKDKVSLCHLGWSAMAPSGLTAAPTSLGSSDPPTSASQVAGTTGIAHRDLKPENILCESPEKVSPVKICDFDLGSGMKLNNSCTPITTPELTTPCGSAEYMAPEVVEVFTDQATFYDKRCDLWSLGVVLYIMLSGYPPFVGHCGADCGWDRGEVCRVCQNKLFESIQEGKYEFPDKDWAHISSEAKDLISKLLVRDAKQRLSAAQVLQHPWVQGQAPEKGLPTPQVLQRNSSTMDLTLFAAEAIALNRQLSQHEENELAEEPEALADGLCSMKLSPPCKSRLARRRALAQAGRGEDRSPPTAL
Summed up:
as §1

The mark [1] stands for this setting: read-out: Kinome Profiling performed by Eurofins DiscoverX / AM-0277, 1.0 µM / POC.
Where [2] appears, read: read-out: Kinome Profiling performed by Eurofins DiscoverX / AM-1882, 1.0 µM / POC.
The mark [3] stands for this setting: read-out: Kinome Profiling performed by Eurofins DiscoverX / AM-5308, 1.0 µM / POC.

Sequence of PDGFRB (P09619 whole entry): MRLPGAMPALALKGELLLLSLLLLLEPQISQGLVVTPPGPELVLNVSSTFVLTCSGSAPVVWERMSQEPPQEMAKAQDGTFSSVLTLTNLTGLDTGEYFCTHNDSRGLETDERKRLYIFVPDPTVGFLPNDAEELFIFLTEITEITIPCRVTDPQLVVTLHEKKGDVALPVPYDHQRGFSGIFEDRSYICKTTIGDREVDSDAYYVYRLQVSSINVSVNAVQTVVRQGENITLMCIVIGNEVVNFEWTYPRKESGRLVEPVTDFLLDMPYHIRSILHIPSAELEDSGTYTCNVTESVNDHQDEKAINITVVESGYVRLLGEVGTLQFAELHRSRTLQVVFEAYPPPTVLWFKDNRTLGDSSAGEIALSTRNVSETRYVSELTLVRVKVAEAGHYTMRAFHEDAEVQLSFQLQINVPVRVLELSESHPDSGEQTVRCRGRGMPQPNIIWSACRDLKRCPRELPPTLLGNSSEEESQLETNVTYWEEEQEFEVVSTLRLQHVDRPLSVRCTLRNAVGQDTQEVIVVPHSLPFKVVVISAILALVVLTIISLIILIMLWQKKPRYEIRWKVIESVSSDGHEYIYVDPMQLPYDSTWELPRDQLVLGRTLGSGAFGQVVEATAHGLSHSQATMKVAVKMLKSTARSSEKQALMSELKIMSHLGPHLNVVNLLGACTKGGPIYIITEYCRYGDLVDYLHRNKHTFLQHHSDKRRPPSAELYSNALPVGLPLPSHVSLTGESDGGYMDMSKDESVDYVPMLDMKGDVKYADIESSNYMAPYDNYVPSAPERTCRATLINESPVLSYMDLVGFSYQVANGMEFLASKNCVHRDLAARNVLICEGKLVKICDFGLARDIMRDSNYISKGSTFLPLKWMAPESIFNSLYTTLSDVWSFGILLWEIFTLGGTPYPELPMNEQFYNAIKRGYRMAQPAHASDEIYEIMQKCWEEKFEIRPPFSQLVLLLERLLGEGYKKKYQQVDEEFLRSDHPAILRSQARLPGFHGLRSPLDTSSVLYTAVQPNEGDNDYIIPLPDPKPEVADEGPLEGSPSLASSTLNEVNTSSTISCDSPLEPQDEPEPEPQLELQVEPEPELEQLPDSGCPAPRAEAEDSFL

With `CC(C)(CO)Nc1ccc(C(=O)Nc2cccc(S(=O)(=O)C3CCCC3)c2)c(N2CCC3(CC2)CC3)n1` [AM-0277], the remaining activity at 1 µM on TIE2 (setting [1]) came out at 77%; at MST2 (setting [1]) it was 49%; on TBK1 (setting [1]), 87%; on PDGFRB (setting [1]) it was 94%; on MNK1b (setting [1]), 100%.

For `CC(C)(C)NS(=O)(=O)c1cccc(NC(=O)c2ccc(S(=O)(=O)NC(C)(C)C)cc2N2CCC3(CC2)CC3)c1` [AM-1882], the remaining activity at 1 µM was 94.5% on TIE2 (setting [2]); 91.5% on MST2 (setting [2]); 82% at TBK1 (setting [2]); 98% on PDGFRB (setting [2]); 100% at MNK1b (setting [2]).

On to `C[C@@H]1CN(c2cccc(NC(=O)c3ccc(NS(=O)(=O)CCO)cc3N3CCC4(CC3)CC4)n2)CCO1` [AM-5308], for which the remaining activity at 1 µM on TIE2 (setting [3]) is 90%; on MST2 (setting [3]), 86.5%; at TBK1 (setting [3]), 100%; at PDGFRB (setting [3]), 97.5%; at MNK1b (setting [3]), 96.5%.
